# Measurements: publication PMC12528653, “Functional characterization of key enzymes involved in the biosynthesis of distinctive flavonoids and stilbenoids in Morus notabilis” (Horticulture Research, 2025)
# Tests used:
# Experiment in all cases: HPLC product assay, relative activity vs wild type
# Assay type in all cases: biochemical
# MnFLS [1] = target: T1, MnFLS (Morus notabilis, UniProt W9RQ78, T117S); details: 100 μM substrate; 2-oxoglutarate, ascorbate, FeSO4; Tris-HCl pH 7.0, 30°C, 1 h
# T1 construct: gene L484_013110; full-length ORF (1008 bp, 335 aa) in pET32a, E. coli BL21(DE3), purified recombinant
# MnFLS [2] = target: T2, MnFLS (Morus notabilis, UniProt W9RQ78, L224M); details: 100 μM substrate; 2-oxoglutarate, ascorbate, FeSO4; Tris-HCl pH 7.0, 30°C, 1 h; wild-type residue also printed as Met224
# T2 construct: gene L484_013110; full-length ORF (1008 bp, 335 aa) in pET32a, E. coli BL21(DE3), purified recombinant
# MnFLS [3] = target: T3, MnFLS (Morus notabilis, UniProt W9RQ78, T117I); details: 100 μM substrate; 2-oxoglutarate, ascorbate, FeSO4; Tris-HCl pH 7.0, 30°C, 1 h
# T3 construct: gene L484_013110; full-length ORF (1008 bp, 335 aa) in pET32a, E. coli BL21(DE3), purified recombinant
# MnFLS [4] = target: T4, MnFLS (Morus notabilis, UniProt W9RQ78, K202V); details: 100 μM substrate; 2-oxoglutarate, ascorbate, FeSO4; Tris-HCl pH 7.0, 30°C, 1 h
# T4 construct: gene L484_013110; full-length ORF (1008 bp, 335 aa) in pET32a, E. coli BL21(DE3), purified recombinant
# T4 sequence (W9RQ78 entry or part of it K202V): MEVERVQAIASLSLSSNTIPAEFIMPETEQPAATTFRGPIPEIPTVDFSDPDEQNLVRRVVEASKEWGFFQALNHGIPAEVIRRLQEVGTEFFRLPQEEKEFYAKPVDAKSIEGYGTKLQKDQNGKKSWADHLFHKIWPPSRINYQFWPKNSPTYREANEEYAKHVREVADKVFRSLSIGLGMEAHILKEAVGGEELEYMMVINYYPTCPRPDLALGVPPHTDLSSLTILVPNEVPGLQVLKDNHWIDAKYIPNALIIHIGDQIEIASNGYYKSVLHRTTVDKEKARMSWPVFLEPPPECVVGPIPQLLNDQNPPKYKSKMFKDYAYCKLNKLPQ
# T2 sequence (W9RQ78 entry or part of it L224M): as the sequence (W9RQ78 entry or part of it K202V) above, with V202K, L224M counted along it
# T3 sequence (W9RQ78 entry or part of it T117I): as the sequence (W9RQ78 entry or part of it K202V) above, with T117I, V202K counted along it
# T1 sequence (W9RQ78 entry or part of it T117S): as the sequence (W9RQ78 entry or part of it K202V) above, with T117S, V202K counted along it
SMILES,"HPLC product assay, relative activity vs wild type (MnFLS [1])","HPLC product assay, relative activity vs wild type (MnFLS [2])","HPLC product assay, relative activity vs wild type (MnFLS [3])","HPLC product assay, relative activity vs wild type (MnFLS [4])"
O=C1c2c(O)cc(O)cc2O[C@H](c2ccc(O)cc2)[C@H]1O [dihydrokaempferol],T117S resulted in significant enhancement of activity for both naringenin and dihydrokaempferol as substrates,The variant L224M facilitated the conversion of dihydrokaempferol to kaempferol,replacing the Thr117 with Ile led to reduced activity,the mutant K202V suffered an almost complete loss of enzymatic function
O=C1C[C@@H](c2ccc(O)cc2)Oc2cc(O)cc(O)c21 [naringenin],T117S resulted in significant enhancement of activity for both naringenin and dihydrokaempferol as substrates,promoted an increased synthesis of dihydrokaempferol and kaempferol from naringenin,replacing the Thr117 with Ile led to reduced activity,the mutant K202V suffered an almost complete loss of enzymatic function
